In test [1] the target is cdk4/D (Homo sapiens, UniProt P11802). In words: Cyclin-Dependent Kinase 4 (cdk4) Assay. In kind it is biochemical. The method, then: A typical assay, for instance, measures inhibitory activity against the cyclin D dependent kinase 4 enzyme (cdk4/D). […] The cdk4 assay was carried out as follows.
Cyclin-Dependent Kinase 4 (cdk4) Assay
All components except the ATP were added to the wells, and the plate was placed on a plate mixer for 2 minutes. The reaction was started by adding [^32P]ATP and the plate was incubated at 25° C. for 15 minutes. The reaction was terminated by addition of 0.1 mL of 20% trichloroacetic acid (TCA). The plate was kept at 4° C. for at least 1 hour to allow the substrate to precipitate. The wells were then washed five times with 0.2 mL of 10% TCA and ^32P incorporation was determined with a beta plate counter (Wallac Inc., Gaithersburg, Md.).

In test [2] the target is Cdk5/p25 (Homo sapiens, UniProt Q00535). In words: Cyclin-Dependent Kinase 5 High Throughput Screening (cdk5-HTS) Assay. Conditions: high throughput screen. In kind it is biochemical. The method, then: Cyclin-Dependent Kinase 5 High Throughput Screening (cdk5-HTS) Assay
Enzyme assays for IC50 determinations were performed in 96-Pierce Reacti-Bind™ White Opaque Glutatione Coated Plates (Cat. No. 15240B).
The total volume was 0.100 mL containing a final concentration of 50 mM TRIS (tris[hydroxymethyl]aminomethane) at pH 7.4, 50 mM NaCl, 10 mM MgCl2, 5 mM dithiothreitol, 20 μM ATP containing 16 μCi/mL of Redivue[y33P]ATP (Amersham Pharmacia Biotech Cat. No. AH9968), 1.0 μg/mL Cdk5/p25, 20 μg/mL GST-RbCOOH, and appropriate dilutions of a compound of the present invention. The reaction was started by adding[^33P]ATP, and the plate was shaken for 30 seconds, then incubated at room temperature for 30 minutes. The reaction was terminated by addition of 0.05 mL of 120 mM EDTA. The plate was kept at room temperature for 45 minutes to allow substrate to bind to the walls of the plate. The wells were then washed three times with 0.2 mL of 1×PBS. Once thoroughly dry, 0.140 mL of MicroScint™2O (Packard Bioscience Cat. No. 87-9081) cocktail was added to all wells. The incorporation of ^33P was determined with a beta plate counter (Packard Topcount).

Test [3] concerns the target cdk2/cyclinE (Homo sapiens, UniProt P24941). Description: Cyclin-Dependent Kinase Assay cdk2/cyclinE. Conditions: cdk2/E IC50.
Protocol: Cyclin-Dependent Kinase Assays (cdk2/cyclinE, cdk2/cyclinA, cdc2/cyclinB)
All components except the ATP were added to the wells, and the plate was placed on a plate mixer for 2 minutes. The reaction was begun by addition of [^32P]ATP, and the plate was incubated at 25° C. for 15 minutes. The reaction was terminated by addition of 0.1 mL of 20% TCA. The plate was kept at 4° C. for at least 1 hour to allow the substrate to precipitate. The wells were then washed five times with 0.2 mL of 10% TCA and ^32p incorporation determined with a beta plate counter (Wallac Inc., Gaithersburg, Md.).
In test [4] the target is cdc2/cyclinB (Homo sapiens, UniProt P06493). Description: Cyclin-Dependent Kinase Assay cdc2/cyclinB.
The target in test [5] is cdk2/cyclinA (Homo sapiens, UniProt P24941). In words: Cyclin-Dependent Kinase Assay cdk2/cyclinA. Conditions: cdk2/A IC50.

Where two headings read alike, the source gives them in different places.

Chain of cdk4/D (P11802 whole entry): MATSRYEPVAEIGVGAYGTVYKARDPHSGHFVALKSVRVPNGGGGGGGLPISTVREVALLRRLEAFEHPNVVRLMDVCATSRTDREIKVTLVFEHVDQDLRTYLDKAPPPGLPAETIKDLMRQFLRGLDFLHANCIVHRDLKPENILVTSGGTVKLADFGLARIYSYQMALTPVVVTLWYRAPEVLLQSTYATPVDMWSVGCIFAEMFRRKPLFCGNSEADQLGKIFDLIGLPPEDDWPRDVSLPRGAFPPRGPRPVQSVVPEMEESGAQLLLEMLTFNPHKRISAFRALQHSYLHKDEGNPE
Chain of cdk4/D (P24385 whole entry, further chain): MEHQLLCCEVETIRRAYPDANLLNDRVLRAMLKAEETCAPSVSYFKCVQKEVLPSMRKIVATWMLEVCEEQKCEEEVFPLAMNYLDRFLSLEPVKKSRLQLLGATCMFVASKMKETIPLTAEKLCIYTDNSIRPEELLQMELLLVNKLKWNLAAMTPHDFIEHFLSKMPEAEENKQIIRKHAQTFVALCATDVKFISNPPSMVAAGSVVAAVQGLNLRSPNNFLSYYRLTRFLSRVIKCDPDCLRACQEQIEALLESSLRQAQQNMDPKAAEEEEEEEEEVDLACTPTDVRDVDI
Chain of cdc2/cyclinB (P06493 whole entry): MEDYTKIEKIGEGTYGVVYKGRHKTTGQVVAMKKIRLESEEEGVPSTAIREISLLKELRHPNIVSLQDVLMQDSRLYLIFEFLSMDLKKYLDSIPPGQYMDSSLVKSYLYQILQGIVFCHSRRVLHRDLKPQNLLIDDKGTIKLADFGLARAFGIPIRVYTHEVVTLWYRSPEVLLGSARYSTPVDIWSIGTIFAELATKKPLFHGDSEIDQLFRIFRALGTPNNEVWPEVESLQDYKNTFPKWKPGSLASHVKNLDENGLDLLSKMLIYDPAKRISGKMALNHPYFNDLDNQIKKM
Chain of cdc2/cyclinB (P14635 whole entry, further chain): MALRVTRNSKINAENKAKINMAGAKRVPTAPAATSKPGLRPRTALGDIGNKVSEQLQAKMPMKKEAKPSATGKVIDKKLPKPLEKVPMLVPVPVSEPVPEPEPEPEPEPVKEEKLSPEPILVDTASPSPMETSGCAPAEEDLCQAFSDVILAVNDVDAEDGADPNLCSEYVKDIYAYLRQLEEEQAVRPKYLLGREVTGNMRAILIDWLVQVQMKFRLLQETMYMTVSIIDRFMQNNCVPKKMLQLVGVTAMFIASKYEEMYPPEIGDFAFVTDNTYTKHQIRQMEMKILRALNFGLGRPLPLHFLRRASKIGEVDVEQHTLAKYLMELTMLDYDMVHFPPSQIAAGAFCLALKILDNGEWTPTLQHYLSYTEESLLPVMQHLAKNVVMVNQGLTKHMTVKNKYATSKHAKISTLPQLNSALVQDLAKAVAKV

For the molecule “8-Butyl-2-(2-fluoro-4-nitro-phenylamino)-8H-pyrido[2,3-d]pyrimidin-7-one [Example 367]”, the IC50 in test [1] (read-out: cdk4/D IC50) turned out to be 2.3 µM.

As to `CCNc1nc(Nc2ccccc2)ncc1C=CC(=O)OCC` [Example 17, Ethyl 3-(4-Ethylamino-2-phenylamino-pyrimidin-5-yl)acrylate], the IC50 in test [1] (Table 2, Formula II compounds, read-out: cdk4 IC50) amounted to 2 µM.

Regarding `CCn1c(=O)ccc2cnc(Nc3ccccc3OCc3ccccc3)nc21` [Example 56, 2-Benzyloxyphenylamino-8-ethyl-8H-pyrido[2,3-d]pyrimidin-7-one], the IC50 in test [1] (Table 1, read-out: cdk4/D IC50) was 25 µM.

Take `CCn1c(=O)ccc2cnc(Nc3cc(C(F)(F)F)ccc3F)nc21` [Example 302, 8-Ethyl-2-(2-fluoro-5-trifluoromethyl-phenylamino)-8H-pyrido[2,3-d]pyrimidin-7-one]: the IC50 was 0.65 µM in test [2] and 2.3 µM in test [3].

With `CCn1c(=O)ccc2cnc(Nc3ccc(OC(F)(F)F)c(Br)c3)nc21` [Example 306, 2-(3-Bromo-4-trifluoromethoxy-phenylamino)-8-ethyl-8H-pyrido[2,3-d]pyrimidin-7-one], in test [1] (read-out: cdk4/D IC50), the IC50 came out at 3.6 µM.

As for `CCn1c(=O)ccc2cnc(Nc3ccc(C)c(NS(C)(=O)=O)c3)nc21` [Example 307, N-[5-(8-Ethyl-7-oxo-7,8-dihydro-pyrido[2,3-d]pyrimidin-2-ylamino)-2-methyl-phenyl]-methanesulfonamide], the IC50 in test [1] (read-out: cdk4/D IC50) was determined as 2.8 µM.

On to `CCn1c(=O)ccc2cnc(Nc3ccc(NC(C)=O)c(C#N)c3)nc21` [Example 308, N-[2-Cyano-4-(8-ethyl-7-oxo-7,8-dihydro-pyrido[2,3-d]pyrimidin-2-ylamino)-phenyl]-acetamide], for which the IC50 in test [1] (read-out: cdk4/D IC50) is 3.2 µM.

Turning to `CCCn1c(=O)ccc2cnc(Nc3ccc(C#N)c(C#N)c3)nc21` [Example 339, 4-(7-Oxo-8-propyl-7,8-dihydro-pyrido[2,3-d]pyrimidin-2-ylamino)-phthalonitrile], the figures for the IC50 in test [2] and in test [3] were 0.83 µM and 1.8 µM, respectively.

In turn, `CCCn1c(=O)ccc2cnc(Nc3ccc4c(c3)NCC4)nc21` [Example 352, 2-(2,3-Dihydro-1H-indol-6-ylamino)-8-propyl-8H-pyrido[2,3-d]pyrimidin-7-one] came in with an IC50 in test [2] of 2.9 µM.

With `CCCn1c(=O)ccc2cnc(Nc3ccc(OC(F)(F)F)c(Br)c3)nc21` [Example 363, 2-(3-Bromo-4-trifluoromethoi-phenylamino)-8-propyl-8H-pyrido[2,3-d]pyrimidin-7-one], the IC50 in test [1] (read-out: cdk4/D IC50) is 1.9 µM.

On to `CCCCn1c(=O)ccc2cnc(Nc3ccc(C)c(NS(C)(=O)=O)c3)nc21` [Example 405, N-[5-(8-Butyl-7-oxo-7,8-dihydro-pyrido[2,3-d]pyrimidin-2-ylamino)-2-methyl-phenyl]-methanesulfonamide], for which, in test [1] (read-out: cdk4/D IC50), the IC50 was determined as 3.1 µM.

As for `Cc1cc(Nc2ncc3ccc(=O)n(C(C)C)c3n2)ccc1O` [Example 435, 2-(4-Hydroxy-3-methyl-phenylamino)-8-isopropyl-8H-pyrido[2,3-d]pyrimidin-7-one], the values for the IC50 in test [1] (read-out: cdk4/D IC50) and in test [2] were 2.6 µM and 1.3 µM, respectively.

As for `CC(C)n1c(=O)ccc2cnc(Nc3ccc4c(c3)CCN4)nc21` [Example 437, 2-(2,3-Dihydro-1H-indol-5-ylamino)-8-isopropyl-8H-pyrido[2,3-d]pyrimidin-7-one], in test [1] (read-out: cdk4/D IC50), the IC50 was 3.2 µM.

For the molecule `CC(=O)Nc1ccc(Nc2ncc3ccc(=O)n(C(C)C)c3n2)cc1C#N` [Example 445, N-[2-Cyano-4-(8-isopropyl-7-oxo-7,8-dihydro-pyrido[2,3-d]pyrimidin-2-ylamino)-phenyl]-acetamide], the IC50 in test [1] (read-out: cdk4/D IC50) amounted to 2.7 µM.

For `CCC(C)n1c(=O)ccc2cnc(Nc3ccc(C)c(Br)c3)nc21` (stereo not drawn) [Example 478, 2-(3-Bromo-4-methyl-phenylamino)-8-sec-butyl-8H-pyrido[2,3-d]pyrimidin-7-one], the IC50 in test [1] (read-out: cdk4/D IC50) was found to be 1.3 µM.

For `CCC(C)n1c(=O)ccc2cnc(Nc3ccc(Br)c(C)c3)nc21` (stereo not drawn) [Example 479, 2-(4-Bromo-3-methyl-phenylamino)-8-sec-butyl-8H-pyrido[2,3-d]pyrimidin-7-one], in test [1] (read-out: cdk4/D IC50), the IC50 stood at 1.7 µM.

`CCC(C)n1c(=O)ccc2cnc(Nc3ccc(C)c(NS(C)(=O)=O)c3)nc21` (stereo not drawn) [Example 480, N-[5-(8-sec-Butyl-7-oxo-7,8-dihydro-pyrido[2,3-d]pyrimidin-2-ylamino)-2-methyl-phenyl]-methanesulfonamide]: the IC50 in test [1] (read-out: cdk4/D IC50) stood at 2.9 µM.

Regarding `CCC(CC)n1c(=O)ccc2cnc(Nc3ccc(C(F)(F)F)c([N+](=O)[O-])c3)nc21` [Example 489, 8-(1-Ethyl-propyl)-2-(3-nitro-4-trifluoromethyl-phenylamino)-8H-pyrido[2,3-d]pyrimidin-7-one], the IC50 in test [2] came to 3.5 µM.

With `O=c1ccc2cnc(Nc3ccc4c(c3)CCN4)nc2n1C1CCCC1` [Example 553, 8-Cyclopentyl-2-(2,3-dihydro-1H-indol-5-ylamino)-8H-pyrido[2,3-d]pyrimidin-7-one], the IC50 amounted to 0.099 µM in test [1] (read-out: cdk4/D IC50) and 2.5 µM in test [4].

`CC(=O)Nc1c(F)cc(Nc2ncc3ccc(=O)n(CC4CC4)c3n2)cc1Cl` [Example 579, N-[2-Chloro4-(8-cyclopropylmethyl-7-oxo-7,8-dihydro-pyrido[2,3-d]pyrimidin-2-ylamino)-6-fluoro-phenyl]-acetamide]: the IC50 in test [1] (read-out: cdk4/D IC50) was found to be 2.8 µM; in test [3] it was 2.9 µM; in test [5] it was 3.9 µM.

On to `O=c1ccc2cnc(Nc3ccc4c(c3)CCN4)nc2n1CC1CC1` [Example 581, 8-Cyclopropylmethyl-2-(2,3-dihydro-1H-indol-5-ylamino)-8H-pyrido[2,3-d]pyrimidin-7-one], for which the figures for the IC50 in test [1] (read-out: cdk4/D IC50) and in test [4] were 0.42 µM and 1.6 µM, respectively.

For the molecule `COc1ccc(Nc2ncc3ccc(=O)n(CC(F)(F)F)c3n2)cc1F` [Example 602, 2-(3-Fluoro-4-methoxy-phenylamino)-8-(2,2,2-trifluoro-ethyl)-8H-pyrido[2,3-d]pyrimidin-7-one], the results for the IC50 in test [1] (read-out: cdk4/D IC50), in test [2] and in test [4] were 1.3 µM, 0.18 µM and 1.8 µM, respectively.

The molecule `N#Cc1ccc(Nc2ncc3ccc(=O)n(CC(F)(F)F)c3n2)cc1C#N` [Example 603, 4-[7-Oxo-8-(2,2,2-trifluoro-ethyl)-7,8-dihydro-pyrido[2,3-d]pyrimidin-2-ylamino]-phthalonitrile] displayed an IC50 in test [2] of 1.2 µM.

For the molecule `CC(=O)Nc1cc(Nc2ncc3ccc(=O)n(CC(F)(F)F)c3n2)ccc1C#N` [Example 604, N-{2-Cyano-5-[7-oxo-8-(2,2,2-trifluoro-ethyl)-7,8-dihydro-pyrido[2,3-d]pyrimidin-2-ylamino]-phenyl}-acetamide], the IC50 in test [1] (read-out: cdk4/D IC50) was found to be 3.2 µM; in test [2], 2 µM.

Take `O=c1ccc2cnc(Nc3ccc(F)c(F)c3)nc2n1CC(F)(F)F` [Example 607, 2-(3,4-Difluoro-phenylamino)-8-(2,2,2-trifluoro-ethyl)-8H-pyrido[2,3-d]pyrimidin-7-one]: the IC50 in test [1] (read-out: cdk4/D IC50) was determined as 1.4 µM; in test [2], 0.61 µM.

In turn, `O=c1ccc2cnc(Nc3cc(F)cc(F)c3)nc2n1CC(F)(F)F` [Example 609, 2-(3,5-Difluoro-phenylamino)-8-(2,2,2-trifluoro-ethyl)-8H-pyrido[2,3-d]pyrimidin-7-one] came in with an IC50 in test [2] of 3.2 µM.

Turning to `O=c1ccc2cnc(Nc3cccc(C(F)(F)F)c3)nc2n1CC(F)(F)F` [Example 611, 8-(2,2,2-Trifluoro-ethyl)-2-(3-trifluoromethyl-phenylamino)-8H-pyrido[2,3-d]pyrimidin-7-one], in test [2], the IC50 is 3.3 µM.

`Cn1c(=O)ccc2cnc(Nc3ccc(O)c(Cl)c3)nc21` [Example 616, 2-(3-Chloro-4-hydroxy-phenylamino)-8-methyl-8H-pyrido[2,3-d]pyrimidin-7-one]: the IC50 in test [2] was 2.2 µM; in test [3], 3.8 µM.

On to `COc1cc(Nc2ncc3ccc(=O)n(C)c3n2)cc(OC)c1OC` [Example 619, 8-Methyl-2-(3,4,5-trimethoxy-phenylamino)-8H-pyrido[2,3-d]pyrimidin-7-one], for which the IC50 in test [2] was 1.7 µM.

In test [2], `Cn1c(=O)ccc2cnc(Nc3ccc(C#N)c(C(F)(F)F)c3)nc21` [Example 620, 4-(8-Methyl-7-oxo-7,8-dihydro-pyrido[2,3-d]pyrimidin-2-ylamino)-2-trifluoromethyl-benzonitrile] showed an IC50 of 0.42 µM.

For the origin of these results see patent US20040224958A1, “Pyridopyrimidinone derivatives for treatment of neurodegenerative disease” (priority 2000, published 2004).
